# Assay results as given in patent publication US8597920B2, “Class of Chloroflexi-like thermophilic cellulose degrading bacteria” (priority 2008, dated 2013).
# Key:
# Chloroflexus isolate T81 [1] = test: Growth on sole energy sources (metabolism experiments); type: cell-based, thermophilic Chloroflexi-like bacteria; conditions: AOM1 (pH 6.5) and FS3V (pH 4.5)
# Procedure: (§1) Mineral salts medium FS3V, FeEDTA, Trace elements solution and AOM1 medium were prepared as for Example 1. Energy sources were added to both media prior to autoclaving (0.5 g/L), except where noted, via syringe filter.
# (§2) Unless otherwise stated, the following growth conditions were used for all experiments; Chloroflexus strains were grown aerobically at 60° C. in capped 100 mL serum bottles containing 50 mL of medium and 50 mL air headspace. No CO2 was amended to the headspace. Medium was sterilised via autoclaving (121° C., 20 min). Fifty μL of culture was inoculated into 50 mL of sterile medium. Stock Chloroflexus strains were maintained in liquid culture on mannose and on carboxymethylcellulose (CMC), and on phytagel-based solid medium.
# (§3) Growth experiments to determine growth using different energy sources were conducted using the basal media, AOM1 or FS3V. No yeast extract (YE) or vitamins were added as growth supplements to either medium in these series of experiments. […] Both the YE and vitamin mix were also tested as sole energy sources.
# (§4) Sole energy sources were added at a concentration of (0.5 g/L). […] Yeast extract (Becton Dickinson, 211929), sodium pyruvate (Sigma, P2256), sodium citrate (Ajax Finechem, A467,) and sodium acetate (Sigma, S2881), were also tested as sole energy sources, along with the alcohols methanol (Merck, 1.06018), ethanol (Merck, 1.00983), 1-propanol (Merck, 1.01024), 2-propanol (Merck, 1.01040), pentanol (Sigma, 138975) and butanol (Sigma, 1.01988). A vitamin mix was tested as a sole energy source. The vitamin mixture contained (in 100 mg): 0.8 mg folic acid; 8 mg vitamin B1; 4 mg vitamin B2; 1 mg niacin; 10 mg niacinamide; 15 mg pantothenate; 15 mg pyridoxine; 5 mg cobalamin; 5 mg biotin; 15 mg choline; 15 mg inositol; 7 mg para-amino benzoic acid and was tested at 10 and 100 mg/L.
# (§5) Experiments were inoculated using stock cultures of T81, T12 and T26 grown in a corresponding medium with a corresponding energy source type. For example, inoculum for testing growth on a cellulose-based compound was grown in the corresponding medium with a cellulose-based compound as an energy source. All energy sources were added at a concentration of 0.5 g/L prior to autoclave sterilisation, except for D-N-acetylglucosamine, D-(−)-fructose, sodium acetate, sodium citrate, sodium pyruvate, methanol, ethanol, 1-propanol, 2-propanol, pentanol and butanol which were added via filter sterilisation (0.22 μm pore size membrane syringe filter). Tests were conducted in triplicate with a sterile control.
# Chloroflexus isolate T81 [2] = test: as above; type: cell-based, thermophilic Chloroflexi-like bacteria; conditions: aerobic, 60° C.; for Growth of T81 on sole energy source, FS3V: FS3V medium (pH 4.5), energy source 0.5 g/L; for Growth of T81 on alcohol as sole energy source, FS3V: alcohol 0.05% v/v
# Chloroflexus isolate T12 [3] = test: as above; type: cell-based, thermophilic Chloroflexi-like bacteria; conditions: for Growth of T12 on alcohol as sole energy source, FS3V: alcohol 0.05% v/v, aerobic, 60° C.
# Procedure: as §1, §2, §3, §4, §5
# Chloroflexus isolate T26 = test: as above; type: cell-based, thermophilic Chloroflexi-like bacteria; conditions: aerobic, 60° C.; for Growth of T26 on sole energy source, AOM1: AOM1 medium (pH 6.5), energy source 0.5 g/L
# Procedure: as §1, §2, §3, §4, §5
# Strain T81 = test: Preference for alcohols over saccharides (fructose with ethanol, HPLC); type: cell-based, thermophilic Chloroflexi-like bacteria; conditions: FS3V, 60° C.
# Procedure: Unless otherwise stated, sugars and/or alcohols were measured on a Dionex Ultimate 3000® High Performance Liquid Chromatography (HPLC) unit via refractive index (RI) on a Shodex RI-101 unit (Dionex, Utah, USA). The RI unit was run at 35° C. Samples (10 μL) were injected into a degassed water carrier solution running at 0.6 mL/min. Samples were separated on a Varian PL Hi-Plex H (8 μm, 300×7.7 mm) at 60° C. (Varian, Massachusetts, USA). Chromatographs were interpreted using Chromeleon® software (Dionex, Utah, USA). Strain […] was also tested for it's preference for alcohols over saccharides. […] Strain […] was inoculated and incubated statically at 60° C. One milliliter samples were taken daily and frozen for analysis using HPLC.
# [4] = tested on: Chloroflexus strains T81, T26 and T12; test: Growth on energy sources, statements for all three strains together; type: cell-based, thermophilic Chloroflexi-like bacteria
# Procedure: Growth experiments to determine growth using different energy sources were conducted using the basal media, AOM1 or FS3V. No yeast extract (YE) or vitamins were added as growth supplements to either medium in these series of experiments. Preliminary experiments have shown that they are not requited. Both the YE and vitamin mix were also tested as sole energy sources. Sole energy sources were added at a concentration of (0.5 g/L). […] A vitamin mix was tested as a sole energy source. The vitamin mixture contained (in 100 mg): 0.8 mg folic acid; 8 mg vitamin B1; 4 mg vitamin B2; 1 mg niacin; 10 mg niacinamide; 15 mg pantothenate; 15 mg pyridoxine; 5 mg cobalamin; 5 mg biotin; 15 mg choline; 15 mg inositol; 7 mg para-amino benzoic acid and was tested at 10 and 100 mg/L. Experiments were inoculated using stock cultures of […], T12 and […] grown in a corresponding medium with a corresponding energy source type. For example, inoculum for testing growth on a cellulose-based compound was grown in the corresponding medium with a cellulose-based compound as an energy source. […] Bacterial growth was determined visually as optical density (OD) measurements are not possible due to growth characteristics of the Chloroflexi isolates. […] Cellulose pulp degradation and sugar generation by Chloroflexus strain […] was assessed. […] Growth on the various pulp tablets was assessed visually.
# Chloroflexus isolate T12 [5] = conditions: FS3V, pH 4.5; ethanol as sole energy source
# Procedure: All three Chloroflexus strains were tested for their ability to grow on elevated levels of ethanol. Ethanol at concentrations of 0.1%, 1.0%, 2.0%, 5.0%, 7.5%, and 10.0% (v/v) were asceptically added into FS3V medium following sterilisation as the sole energy source. Strains were then inoculated and incubated statically.
molecule,measurement,setting,value
OC[C@H]1O[C@H](O[C@H]2O[C@H](CO)[C@@H](O)[C@H](O)[C@H]2O)[C@H](O)[C@@H](O)[C@@H]1O [D-(+)-trehalose],Growth of T81 on both media,Chloroflexus isolate T81 [1],grew
O=C[C@@H](O)[C@H](O)[C@H](O)CO [D-(+)-arabinose],"Growth of T81 on sole energy source, FS3V",Chloroflexus isolate T81 [2],grew
CCCCCO [1-pentanol],"Growth of T81 on alcohol as sole energy source, FS3V",Chloroflexus isolate T81 [2],exception
same,"Growth of T12 on alcohol as sole energy source, FS3V",Chloroflexus isolate T12 [3],exception
C[C@@H]1O[C@@H](O)[C@H](O)[C@H](O)[C@H]1O.O [L-rhammnose monohydrate],Growth of T81 on both media,Chloroflexus isolate T81 [1],grew
same,"Growth of T26 on sole energy source, AOM1","Chloroflexus isolate T26; listed as L-rhamnose monohydrate, monohydrate",could grow
O=C[C@H](O)[C@@H](O)[C@H](O)[C@H](O)CO [D-glucose],Growth of T81 on both media,Chloroflexus isolate T81 [1],grew
O=C[C@@H](O)[C@@H](O)[C@H](O)[C@H](O)CO [D-(+)-mannose],Growth of T81 on both media,Chloroflexus isolate T81 [1],grew
same,Growth of Strain T12 in AOM1 medium adjusted to pH 4.5,Chloroflexus isolate T12 [3]; AOM1 medium adjusted to pH 4.5,able to grow
OC[C@H]1O[C@H](OC[C@H]2O[C@H](O[C@]3(CO)O[C@H](CO)[C@@H](O)[C@@H]3O)[C@H](O)[C@@H](O)[C@@H]2O)[C@H](O)[C@@H](O)[C@H]1O [raffinose],Growth of T81 on both media,Chloroflexus isolate T81 [1],grew
OC[C@H]1O[C@H](O[C@H]2[C@H](O)[C@@H](O)[C@H](O)O[C@@H]2CO)[C@H](O)[C@@H](O)[C@@H]1O [D-(+)-maltose],Growth of T81 on both media,Chloroflexus isolate T81 [1],grew
O=C[C@H](O)[C@@H](O)[C@H](O)CO [D-(+)-xylose],Growth of T81 on both media,Chloroflexus isolate T81 [1],grew
O=C[C@H](O)[C@@H](O)[C@@H](O)[C@H](O)CO [D-(+)-galactose],Growth of T81 on both media,Chloroflexus isolate T81 [1],grew
CC(=O)N[C@H]1C(O)O[C@H](CO)[C@@H](O)[C@@H]1O (stereo partly drawn) [D-N-acetylglucosamine],"Growth of T26 on sole energy source, AOM1",Chloroflexus isolate T26; listed as D-N-actylglucosamine,could grow
CCCO [propanol],"Growth of T81 on alcohol as sole energy source, FS3V",Chloroflexus isolate T81 [2],best growth
same,"Growth of T26 on alcohol as sole energy source, FS3V","Chloroflexus isolate T26; FS3V, alcohol 0.05% v/v",best growth
O=C[C@H](O)[C@H](O)[C@H](O)CO [D-(−)-ribose],"Growth of T81 on sole energy source, FS3V",Chloroflexus isolate T81 [2],grew
O=C(CO)[C@@H](O)[C@H](O)[C@H](O)CO [D-(−)-fructose],Growth of T81 on both media,Chloroflexus isolate T81 [1],grew
same,Consumption by T81 in presence of ethanol and fructose,Strain T81; ethanol (0.05% w/v) and fructose (0.05% w/v),consumed fructose in preference to ethanol
OC[C@H]1O[C@@H](O[C@H]2[C@H](O)[C@@H](O)[C@H](O)O[C@@H]2CO)[C@H](O)[C@@H](O)[C@@H]1O [D-(+)-cellobiose],Growth of T81 on both media,Chloroflexus isolate T81 [1],grew
same,"Growth of T26 on sole energy source, AOM1",Chloroflexus isolate T26,could grow
CCO [ethanol],"Ethanol concentrations all strains were able to grow on, up to (and including)","[4]; FS3V, ethanol as sole energy source",≤ 2.0 % (v/v)
same,"Ethanol concentrations Strain T12 was able to grow on, up to (and including)",Chloroflexus isolate T12 [5],≤ 5.0 % (v/v)
same,Effect of ethanol on growth of strain T81,Strain T81; 5% (w/v) ethanol and 0.05% (w/v) fructose,inhibited the growth
OC[C@H]1O[C@@](CO)(O[C@H]2O[C@H](CO)[C@@H](O)[C@H](O)[C@H]2O)[C@@H](O)[C@@H]1O [sucrose],Growth of T81 on both media,Chloroflexus isolate T81 [1],grew
O=C[C@H](O)[C@@H](O)[C@@H](O)[C@H](O)C(=O)O [galacturonic acid],"Support of growth / energy for the isolates T81, T26 and T12","[4]; sole energy sources, AOM1 or FS3V",did not support growth
butanol,"Growth of T12 on alcohol as sole energy source, FS3V",Chloroflexus isolate T12 [3],exception
